The test system of test [1] is CD8+ T cells from Influenza A positive donors sorted using tetramers containing HLA A2.1::[…]. The test is classed as cell-based.
The next test has as its target HLA-A0201 (Homo sapiens, UniProt P04439, D140Y/D185E/D98H/E176V/E277Q/G131W/G231S/I119V/I121R/I166T/I218V/L300P/L318F/N151K/N90K/P208A/P217A/Q86G/Q94H/R138H/R169H/T345S). The test is classed as binding.
Test [2] deals with CD8+ T cells from Influenza A positive donors sorted using tetramers containing HLA A2.1::[…]. The class given is cell-based. The source holds these as a separate data set.
Test [3] relates to SVYDFFVWL (TRP-2 180-188) reactive T cells. Kind of test: T cell activation time course assay, IFNγ production (FACS), TRP-2 epitope. To be noted: for % CD8+ T cells producing IFN-γ peptide concentrations in picomolar 24H 0.5 / Geometric mean IFN-γ in arbitrary fluorescence units peptide concentrations in picomolar 24H 0.5 / % CD8+ T cells producing IFN-γ peptide concentrations in picomolar 48H 0.5 / Geometric mean IFN-γ in arbitrary fluorescence units peptide concentrations in picomolar 48H 0.5: peptide 0.5 pM; for % CD8+ T cells producing IFN-γ peptide concentrations in picomolar 24H 50 / Geometric mean IFN-γ in arbitrary fluorescence units peptide concentrations in picomolar 24H 50 / % CD8+ T cells producing IFN-γ peptide concentrations in picomolar 48H 50 / Geometric mean IFN-γ in arbitrary fluorescence units peptide concentrations in picomolar 48H 50: peptide 50 pM; for % CD8+ T cells producing IFN-γ peptide concentrations in picomolar 24H 5·10^3 / Geometric mean IFN-γ in arbitrary fluorescence units peptide concentrations in picomolar 24H 5·10^3 / % CD8+ T cells producing IFN-γ peptide concentrations in picomolar 48H 5·10^3 / Geometric mean IFN-γ in arbitrary fluorescence units peptide concentrations in picomolar 48H 5·10^3: peptide 5·10^3 pM.

The subject of test [4] is HLA-A2::Mart-1(26-35) reactive T cells stimulated by T2 cells. Kind of test: T cell activation time course assay, IFNγ production (FACS), Mart-1 epitope. The test is classed as cell-based. To be noted: for % CD8+ T cells producing IFN-γ 0H / Geometric mean IFN-γ in arbitrary fluorescence units 0H: time point 0H (basal); for % CD8+ T cells producing IFN-γ 2H / Geometric mean IFN-γ in arbitrary fluorescence units 2H: time point 2H; for % CD8+ T cells producing IFN-γ 4H / Geometric mean IFN-γ in arbitrary fluorescence units 4H: time point 4H; for % CD8+ T cells producing IFN-γ 24H / Geometric mean IFN-γ in arbitrary fluorescence units 24H: time point 24H; for % CD8+ T cells producing IFN-γ 24H / Geometric mean IFN-γ in arbitrary fluorescence units 24H / % CD8+ T cells producing IFN-γ 48H / Geometric mean IFN-γ in arbitrary fluorescence units 48H: free peptide washed away; for % CD8+ T cells producing IFN-γ 48H / Geometric mean IFN-γ in arbitrary fluorescence units 48H: time point 48H.

Where “and” joins values, the source holds several entries; their conditions need not be identical. Identical values can stand only once.

In the case of [am-phg][BUTALA]LGFVFTL, in test [1], the “% Positive TCR recognition % TCR” value is reported as 3.32% and the “Geometric mean IFN in arbitrary fluorescence units Geo TCR” value was 155 arbitrary fluorescence units. In addition, at HLA-A0201, the % inhibition (in general, the change of the read-out against control, counted positive when it falls) at T=4H and T=24H FP 24h is recorded as 96%; the “IC50 Ratio” value was 3. Further, in test [2], the “% CD8+ T cells producing IFN-γ % IFN” value is given as 2.8% and the “Geometric mean IFN-γ in arbitrary fluorescence units Geo IFN” value is recorded as 205 arbitrary fluorescence units.
In the case of [am-phg][BUTALA]LGFV[4-FPHE]TL, in test [1], the “% Positive TCR recognition % TCR” value was found to be 3.20% and the “Geometric mean IFN in arbitrary fluorescence units Geo TCR” value is on record as 217 arbitrary fluorescence units. At HLA-A0201, the “% inhibition at T=4H and T=24H FP 4h” value worked out at 83%; the “% inhibition at T=4H and T=24H FP 24h” value was found to be 84%; the “IC50 Ratio” value was determined as 3. Moreover, in test [2], the “% CD8+ T cells producing IFN-γ % IFN” value was 2.6% and the “Geometric mean IFN-γ in arbitrary fluorescence units Geo IFN” value is reported as 266 arbitrary fluorescence units.
For [am-phg][CpALA]YDFFVW[PRG], in test [3], the “% CD8+ T cells producing IFN-γ peptide concentrations in picomolar 24H 0.5” value came to 1%, the “Geometric mean IFN-γ in arbitrary fluorescence units peptide concentrations in picomolar 24H 0.5” value (from here on “Geometric mean IFN-γ … in picomolar 24H 0.5”) is 94 arbitrary fluorescence units, the “% CD8+ T cells producing IFN-γ peptide concentrations in picomolar 24H 50” value was determined as 1% and the “Geometric mean IFN-γ in arbitrary fluorescence units peptide concentrations in picomolar 24H 50” value is 69 arbitrary fluorescence units. Also, in test [3], the “% CD8+ T cells producing IFN-γ peptide concentrations in picomolar 24H 5·10^3” value is 14%, the “Geometric mean IFN-γ in arbitrary fluorescence units peptide concentrations in picomolar 24H 5·10^3” value (from here on “Geometric mean IFN-γ … in picomolar 24H 5·10^3”) is 95 arbitrary fluorescence units, the “% CD8+ T cells producing IFN-γ peptide concentrations in picomolar 48H 0.5” value is 0% and the “Geometric mean IFN-γ in arbitrary fluorescence units peptide concentrations in picomolar 48H 0.5” value (“Geometric mean IFN-γ … in picomolar 48H 0.5” for short) is 76 arbitrary fluorescence units. In addition, in test [3], the “% CD8+ T cells producing IFN-γ peptide concentrations in picomolar 48H 50” value is 0%, the “Geometric mean IFN-γ in arbitrary fluorescence units peptide concentrations in picomolar 48H 50” value is recorded as 66 arbitrary fluorescence units, the “% CD8+ T cells producing IFN-γ peptide concentrations in picomolar 48H 5·10^3” value is given as 4% and the “Geometric mean IFN-γ in arbitrary fluorescence units peptide concentrations in picomolar 48H 5·10^3” value (from here on “Geometric mean IFN-γ … in picomolar 48H 5·10^3”) was 76 arbitrary fluorescence units. In addition, on HLA-A0201, the “% inhibition at T=4H and T=24H FP 4h” value came to 80%; the “% inhibition at T=4H and T=24H FP 24h” value is listed as 80%.
As to [am-phg][NVA]AGIGILT[ALG], in test [4] (peptide 0.5 pM), the “% CD8+ T cells producing IFN-γ 0H” value worked out at 0%, the “Geometric mean IFN-γ in arbitrary fluorescence units 0H” value is listed as 112 arbitrary fluorescence units, the “% CD8+ T cells producing IFN-γ 2H” value is given as 26% and the “Geometric mean IFN-γ in arbitrary fluorescence units 2H” value is listed as 221 arbitrary fluorescence units. Further, in test [4] (peptide 0.5 pM), the “% CD8+ T cells producing IFN-γ 4H” value was found to be 29%, the “Geometric mean IFN-γ in arbitrary fluorescence units 4H” value is 350 arbitrary fluorescence units, the “% CD8+ T cells producing IFN-γ 24H” value is 17% and the “Geometric mean IFN-γ in arbitrary fluorescence units 24H” value is 163 arbitrary fluorescence units. Further, in test [4] (peptide 0.5 pM), the “% CD8+ T cells producing IFN-γ 48H” value was 5% and the “Geometric mean IFN-γ in arbitrary fluorescence units 48H” value is reported as 111 arbitrary fluorescence units. Further, in test [4] (peptide 50 pM), the “% CD8+ T cells producing IFN-γ 0H” value is 0%, the “Geometric mean IFN-γ in arbitrary fluorescence units 0H” value was 109 arbitrary fluorescence units, the “% CD8+ T cells producing IFN-γ 2H” value stood at 28% and the “Geometric mean IFN-γ in arbitrary fluorescence units 2H” value was 247 arbitrary fluorescence units. Further, in test [4] (peptide 50 pM), the “% CD8+ T cells producing IFN-γ 4H” value is recorded as 33%, the “Geometric mean IFN-γ in arbitrary fluorescence units 4H” value was 715 arbitrary fluorescence units, the “% CD8+ T cells producing IFN-γ 24H” value amounted to 29% and the “Geometric mean IFN-γ in arbitrary fluorescence units 24H” value is on record as 400 arbitrary fluorescence units. Also, in test [4] (peptide 50 pM), the “% CD8+ T cells producing IFN-γ 48H” value turned out to be 20% and the “Geometric mean IFN-γ in arbitrary fluorescence units 48H” value is on record as 280 arbitrary fluorescence units. Moreover, at HLA-A0201, the “% inhibition at T=4H and T=24H FP 4h” value turned out to be 58%; the “% inhibition at T=4H and T=24H FP 24h” value is 63%; the “IC50 Ratio” value was 2.5 and 2.
[am-phg][NVA]YDFFVWL: in test [3], the “% CD8+ T cells producing IFN-γ peptide concentrations in picomolar 24H 0.5” value was 1%, the “Geometric mean IFN-γ … in picomolar 24H 0.5” value is listed as 59 arbitrary fluorescence units, the “% CD8+ T cells producing IFN-γ peptide concentrations in picomolar 24H 50” value stood at 26% and the “% CD8+ T cells producing IFN-γ peptide concentrations in picomolar 24H 5·10^3” value stood at 34%. Also, in test [3], the “Geometric mean IFN-γ … in picomolar 24H 5·10^3” value is 326 arbitrary fluorescence units, the “% CD8+ T cells producing IFN-γ peptide concentrations in picomolar 48H 0.5” value is reported as 1%, the “Geometric mean IFN-γ … in picomolar 48H 0.5” value was 78 arbitrary fluorescence units and the “% CD8+ T cells producing IFN-γ peptide concentrations in picomolar 48H 50” value is recorded as 18%. In test [3], the “% CD8+ T cells producing IFN-γ peptide concentrations in picomolar 48H 5·10^3” value stood at 40% and the “Geometric mean IFN-γ … in picomolar 48H 5·10^3” value is listed as 255 arbitrary fluorescence units. For the same substance, on HLA-A0201, the “% inhibition at T=4H and T=24H FP 4h” value is recorded as 79%; the “% inhibition at T=4H and T=24H FP 24h” value turned out to be 77%.
With [am-phg][NVA]YDFFVW[PRG], in test [3], the “% CD8+ T cells producing IFN-γ peptide concentrations in picomolar 24H 0.5” value is recorded as 0%, the “Geometric mean IFN-γ … in picomolar 24H 0.5” value is given as 64 arbitrary fluorescence units, the “% CD8+ T cells producing IFN-γ peptide concentrations in picomolar 24H 50” value worked out at 7% and the “Geometric mean IFN-γ in arbitrary fluorescence units peptide concentrations in picomolar 24H 50” value was 77 arbitrary fluorescence units. In test [3], the “% CD8+ T cells producing IFN-γ peptide concentrations in picomolar 24H 5·10^3” value worked out at 26%, the “Geometric mean IFN-γ … in picomolar 24H 5·10^3” value is 181 arbitrary fluorescence units, the “% CD8+ T cells producing IFN-γ peptide concentrations in picomolar 48H 0.5” value is on record as 0% and the “Geometric mean IFN-γ … in picomolar 48H 0.5” value is on record as 71 arbitrary fluorescence units. Further, in test [3], the “% CD8+ T cells producing IFN-γ peptide concentrations in picomolar 48H 50” value turned out to be 1%, the “Geometric mean IFN-γ in arbitrary fluorescence units peptide concentrations in picomolar 48H 50” value is given as 57 arbitrary fluorescence units, the “% CD8+ T cells producing IFN-γ peptide concentrations in picomolar 48H 5·10^3” value worked out at 23% and the “Geometric mean IFN-γ … in picomolar 48H 5·10^3” value was 132 arbitrary fluorescence units. Moreover, on HLA-A0201, the “% inhibition at T=4H and T=24H FP 4h” value came out at 88%; the “% inhibition at T=4H and T=24H FP 24h” value came out at 80%.
